Data taken from patent US6653479B1, “Crystalline form of 6-hydroxy-3-(4-[2-(piperidin-1-yl)ethoxy]phenoxy)-2-(4-methoxyphenyl)benzo[b] thiophene hydrochloride” (Eli Lilly and Company, priority 1999, dated 2003).

Columns and labels:
Format in all cases: physicochemical
[1] = Hygroscopicity (moisture sorption isotherms, VTI method)
Description: Hygroscopicicity studies were performed on F-I and F-III. Upon initial exposure of the samples to approximately 5% RH, there was an immediate weight gain of 1.5% and 1.7% moisture for F-I and F-III, respectively, equivalent to approximately 0.5 mole of water. Both forms show a continuous sorption of moisture through the entire humidity range, which is likely due to incorporation of water molecules in the lattices.
The moisture sorption profiles for F-I and F-III reveal that these forms are essentially non-stoichiometric hydrates. At ambient relative humidity (about 50% RH), F-I contains approximately 1.7% water, corresponding to 0.5 moles of water, while F-III has sorbed about 3.0% water which corresponds to about 0.85 moles of water. The bulk forms of F-I and F-III rapidly equilibrate with the atmosphere, so that the water content observed by analytical techniques is a reflection of the relative humidity at the time of data collection. Lot-to-lot differences observed in the DSC data likely results from the samples being hydrated to different extents due to different ambient storage conditions.
Hygroscopicity measurements were made for F-I and F-III using the VTI method as follows. Each sample was dried under vacuum at 60° C. until no further weight loss was detected, at which time the sample chamber was brought to 0% relative humidity. Moisture sorption isotherms were obtained at 25° C. using a VTI vacuum moisture balance with the following conditions: sample size 10-15 mg, adsorption/desorption range 0-95% relative humidity, step interval 5%, sample interval 10 minutes.

[2] = Stability at different relative humidities (XRD of stored samples); conditions: entire relative humidity range
Description: XRD patterns were obtained for samples of F-I and F-III stored at different relative humidities (0, 22, 50, and 80%). There is a gradual shifting of the initial (0% RH) F-III peaks at about 13.8, 17.6, 18.0, 20.5 and 24.0° in 2θ as well as slight shifting of less intense peaks, as the relative humidity is increased. These observed changes in the XRD patterns of F-III indicate that the unit cell dimensions are changing, presumably to accommodate weakly held water molecules as the relative humidity is increased.
A similar experiment was carried out on F-I to determine whether varying the relative humidity would have a similar effect on its lattice (0, 25, 52, 73 and 95% RH). Very slight shifting of the 0% RH peaks at about 7.7, 18.3, 18.5, 20.5, 20.8° in 2θ is observed as the relative humidity is increased. […] The shifting of peaks in the XRD patterns of F-I is less dramatic than the peak shifts observed as F-III was exposed to different relative humidities.
XRD patterns were obtained on a Siemens D5000 X-ray powder diffractometer, equipped with a CuKα source (λ=1.54056 Å) and a Kevex solid-state detector, operating at 50 kV and 40 mA. Each sample was scanned between 4° and 35° in 2θ. Samples were allowed to equilibrate for at least 30 minutes at the desired temperature and/or relative humidity before data collection.

[3] = Stability at ambient temperature relative to arzoxifene of '474; conditions: relative to the arzoxifene produced by the procedures taught in '474
[4] = Comparison of aqueous solubility and dissolution rate; conditions: F-I compared with F-III
[5] = ambient relative humidity (about 50% RH)

COc1ccc(-c2sc3cc(O)ccc3c2Oc2ccc(OCCN3CCCCC3)cc2)cc1.Cl [F-I, 6-hydroxy-3-(4-[2-(piperidin-1-yl)ethoxy]phenoxy)-2-(4-methoxyphenyl)benzo[b]thiophene hydrochloride]
water content [1, 5]: approximately 1.7% | water content in moles of water [1, 5]: 0.5 mol | water equivalent of the weight gain ([1]; approximately 5% RH): approximately 0.5 mole | immediate weight gain of moisture ([1]; initial exposure to approximately 5% RH, 25° C.): 1.5% | stability over relative humidity range [2]: stable over the entire relative humidity range | stability at ambient temperature [3]: more stable | aqueous solubilities [4]: comparable | dissolution rates [4]: comparable
